In PubChem BioAssay (NCI) one finds GI50 and TGI data, which are given here for 13 compounds.

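Five compound concentrations were applied to cells in 96-well plates for 48 hours; endpoints were derived by simple linear interpolation of the resulting dose-response curve. Here, GI50 denotes the concentration required for 50% inhibition of growth. TGI: total growth inhibition.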

Common to all, as to test: DTP human tumour cell line panel, 48 h
For assay [1], the system named is HS 578T breast.
Assay [2] deals with U251 CNS.
The subject of assay [3] is HT29 colon.
Assay [4] deals with SW-620 colon.
The subject of assay [5] is OVCAR-5 ovarian.
Assay [6] relates to KM12 colon.
Assay [7] relates to T-47D breast.
The test system of assay [8] is NCI-H226 lung.

By GI50 is commonly meant the concentration at which growth is held to half of that of the control. For orientation: TGI means the concentration giving total growth inhibition. A lower TGI goes with greater sensitivity of the cells. As for `COc1ccc(Cn2c(Br)c3c(c2Br)-c2nc(N)sc2CC3)cc1`, the GI50 in assay [1] is 5.61 µM; in assay [2], 5.15 µM; in assay [3], 4.14 µM; in assay [4] it was 3.1 µM; in assay [5], 16 µM; in assay [6] it was 3.47 µM. Besides, in assay [7], the GI50 is 3.03 µM. For the same compound, the TGI is greater than 100 µM in assay [1]; 19 µM in assay [2]; 13.2 µM in assay [3]; 11.4 µM in assay [4]; 50.5 µM in assay [5]; 20.6 µM in assay [6]. Also, the TGI in assay [7] amounted to 12.8 µM.

For the compound `Cc1ccc(NC2=C3CCCCC3OC2=O)cc1` (stereo unspecified), the GI50 is greater than 100 µM in assay [1]; 79.8 µM in assay [3]; greater than 100 µM in assay [4]; greater than 100 µM in assay [5]; greater than 100 µM in assay [6]; 29.3 µM in assay [7]. For the same compound, in assay [8], the GI50 was 87.1 µM. Besides, the TGI in assay [1], in assay [3], in assay [4], in assay [5], in assay [6] and in assay [7] was greater than 100 µM in each case. For the same compound, the TGI in assay [8] is greater than 100 µM.

As to `C#Cc1cccc(Nc2nc3cc([N+](=O)[O-])ccc3nc2Nc2ccc(O)cc2)c1`, the GI50 in assay [1] was 1.89 µM; in assay [2], 1.8 µM; in assay [3], 1.71 µM; in assay [4] it was 1.79 µM; in assay [6], 1.83 µM; in assay [7] it was 1.93 µM. The TGI in assay [1] was determined as 4.71 µM; in assay [2], 3.71 µM; in assay [3], 3.42 µM; in assay [4] it was 3.87 µM; in assay [6], 3.89 µM; in assay [7], 6.24 µM.

Take `C=C(C)C12OC1[C@@]1(C)C(=CC2=O)CCC(O)[C@@H]1C` (stereo partly specified): the TGI is 9.26 µM in assay [1]; 14.4 µM in assay [2]; 3.89 µM in assay [3]; greater than 100 µM in assay [4]; greater than 100 µM in assay [5]; 16.7 µM in assay [6]. The compound also returned a TGI in assay [7] of 78.4 µM.

In the case of `CN(C)CC(O)c1ccc(/C=C/c2ccc(Cl)cc2)cc1` (stereo unspecified), the GI50 is 1.49 µM in assay [1]; 1.53 µM in assay [2]; 1.6 µM in assay [4]; 1.72 µM in assay [5]; 1.66 µM in assay [6]; 3.76 µM in assay [7]. The GI50 in assay [8] was 11.9 µM. Moreover, the TGI was 3.21 µM in assay [1]; 2.86 µM in assay [2]; 2.95 µM in assay [4]; 3.59 µM in assay [5]; 3.03 µM in assay [6]; 16.6 µM in assay [7]. In assay [8], this compound yielded a TGI of 27.3 µM.

Regarding `O=[N+]([O-])c1cc([N+](=O)[O-])c(C(F)(F)F)cc1NN=C(c1ccc(O)cc1)c1ccc(O)cc1`, the GI50 in assay [2] was 2.92 µM; in assay [3], 3.33 µM; in assay [4], 3.44 µM; in assay [5], 11 µM; in assay [6] it was 2.7 µM; in assay [7] it was 2.74 µM. In addition, in assay [8], the GI50 is 4.03 µM. For the same compound, the TGI is 11.7 µM in assay [2]; 12.1 µM in assay [3]; 12.3 µM in assay [4]; 50 µM in assay [5]; 7.85 µM in assay [6]; 13.3 µM in assay [7]. In addition, the TGI in assay [8] stood at 23.7 µM.

Regarding `COc1ccc(C(c2cc(OC)c(OC)c(OC)c2)n2cncn2)cc1O` (stereo unspecified), the GI50 is 0.548 µM in assay [1]; 0.446 µM in assay [2]; 0.33 µM in assay [3]; 0.431 µM in assay [4]; 1.99 µM in assay [5]; 0.418 µM in assay [6]. For the same compound, the GI50 in assay [8] is 1.43 µM. Also, the TGI in assay [1] was greater than 100 µM; in assay [2], greater than 100 µM; in assay [3], 1.9 µM; in assay [4] it was greater than 100 µM; in assay [5], greater than 100 µM; in assay [6] it was greater than 100 µM. The TGI in assay [8] is greater than 100 µM.

As for `COC1=CC(=O)C(C2(OC(C)C)OC(=O)C(Cl)=C2Cl)=CC1=O` (stereo unspecified), the TGI in assay [1], in assay [3], in assay [4], in assay [5], in assay [6] and in assay [7] was greater than 100 µM in each case. Further, the TGI in assay [8] is greater than 100 µM.

In the case of `Cn1cc(-c2cc3c(N4CCN(c5ncc([C@@](C)(N)c6ccc(F)cc6)cn5)CC4)ncnn3c2)cn1`, the GI50 in assay [1] was 1.82 µM; in assay [2] it was 3.67 µM; in assay [3] it was 3.35 µM; in assay [6] it was 3.49 µM. Further, the TGI in assay [1], in assay [2], in assay [3] and in assay [6] was greater than 100 µM throughout.

Turning to `CCOC(=O)n1cc(C2=C(c3ccc(OC)c(OC)c3)COC2=O)c2ccccc21`, the GI50 in assay [1] is 0.087 µM; in assay [2], 0.0536 µM; in assay [3], 0.0364 µM; in assay [4], 0.0417 µM; in assay [5] it was 0.199 µM; in assay [6], 0.0441 µM. In addition, in assay [8], the GI50 was 0.0548 µM. For the same compound, the TGI is greater than 100 µM in assay [1]; greater than 100 µM in assay [2]; greater than 100 µM in assay [3]; greater than 100 µM in assay [4]; greater than 100 µM in assay [5]; 14.1 µM in assay [6]. This compound yielded a TGI in assay [8] greater than 100 µM.

In the case of `CC#Cc1ccc(-c2ccccc2)s1`, the TGI in assay [1], in assay [2], in assay [3], in assay [4], in assay [5] and in assay [6] was greater than 100 µM throughout. Moreover, in assay [8], the TGI was greater than 100 µM.

Take `C[C@@H]1CC[C@H]2C(C)(C)[C@H]3C[C@@]12CC[C@@]3(C)O`: the TGI in assay [1], in assay [3], in assay [4], in assay [5], in assay [6] and in assay [7] was greater than 100 µM each time. The same compound showed a TGI in assay [8] greater than 100 µM.

Take `Cc1nnc2ccnn2c1C`: the GI50 is greater than 100 µM in assay [1]; greater than 100 µM in assay [2]; greater than 100 µM in assay [4]; 17.6 µM in assay [5]; greater than 100 µM in assay [6]; greater than 100 µM in assay [7]. In addition, the GI50 in assay [8] was greater than 100 µM. For the same compound, the TGI is greater than 100 µM in assay [1]; greater than 100 µM in assay [2]; greater than 100 µM in assay [4]; 34.6 µM in assay [5]; greater than 100 µM in assay [6]; greater than 100 µM in assay [7]. The same compound gave a TGI in assay [8] greater than 100 µM.
